In brackets after ≈: the same amount, converted by molar mass.
Legend:
N. gonorrhoeae WHO Q = experiment: Liquid broth MIC in Fastidious broth; assay type: cell-based; conditions: Neisseria gonorrhoeae, read-out: Minimum Inhibitory Concentration, N. gonorrhoeae WHO Q
Method in brief: (§1)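 Colonies were swabbed from chocolate agar after 24 h growth and standardised by optical density at 600 nm. Compounds were serially diluted twofold in Fastidious broth, and bacteria added to give 5×10^5 CFU/mL. After about 24 h at 36 °C in 5% CO2, the lowest concentration allowing under 10% growth was taken as MIC.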

N. gonorrhoeae WHO Z = experiment: Liquid broth MIC in Fastidious broth; assay type: cell-based; conditions: Neisseria gonorrhoeae, read-out: Minimum Inhibitory Concentration, N. gonorrhoeae WHO Z
Method in brief: as §1

Row | Compound | MIC (N. gonorrhoeae WHO Q) | MIC (N. gonorrhoeae WHO Z)
1 | CCN1CCN(C(=O)NC(C(=O)N[C@H]2Cc3cccc(C(=O)O)c3OB2O)c2cc(O)cc(O)c2)C(=O)C1=O (mixture of isomers) [Example 79, (3R)-3-(2-(3,5-dihydroxyphenyl)-2-(4-ethyl-2,3-dioxopiperazine-1-carboxamido)acetamido)-2-hydroxy-3,4-dihydro-2H-benzo[e][1,2]oxaborinine-8-carboxylic acid] | 4 to 8 µg/mL | 4 to 8 µg/mL
2 | CCN1CCN(C(=O)N[C@H](C(=O)N[C@H]2Cc3cccc(C(=O)O)c3OB2O)c2cc(O)cc(O)c2)C(=O)C1=O (single isomer, unassigned) [Example 81] | 16 to 32 µg/mL (≈ 29.6 to 59.2 µM) | 16 to 32 µg/mL (≈ 29.6 to 59.2 µM)
3 | CCN1CCN(C(=O)N[C@@H](C(=O)N[C@H]2Cc3cccc(C(=O)O)c3OB2O)c2cc(O)cc(O)c2)C(=O)C1=O (single isomer, unassigned) [Example 82] | 4 to 8 µg/mL (≈ 7.4 to 14.8 µM) | 4 to 8 µg/mL (≈ 7.4 to 14.8 µM)
4 | NCCN1CCN(C(=O)N[C@H](C(=O)N[C@H]2Cc3cccc(C(=O)O)c3OB2O)c2ccc(C(=O)O)cc2)C(=O)C1=O (single isomer, unassigned) [Example 83] | > 64 µg/mL | > 64 µg/mL
5 | NCCN1CCN(C(=O)N[C@H](C(=O)N[C@H]2Cc3cccc(C(=O)O)c3OB2O)c2ccc(O)cc2F)C(=O)C1=O (single isomer, unassigned) [Example 88] | > 64 µg/mL | > 64 µg/mL
6 | NCCN1CCN(C(=O)N[C@@H](C(=O)N[C@H]2Cc3cccc(C(=O)O)c3OB2O)c2ccc(O)cc2F)C(=O)C1=O (single isomer, unassigned) [Example 89] | > 64 µg/mL | > 64 µg/mL
7 | CCN1CCN(C(=O)N[C@@H](C(=O)N[C@H]2Cc3cccc(C(=O)O)c3OB2O)c2cc(Cl)c(O)cc2Cl)C(=O)C1=O (single isomer, unassigned) [Example 91] | 16 to 32 µg/mL (≈ 27 to 53.9 µM) | 16 to 32 µg/mL (≈ 27 to 53.9 µM)
8 | CCN1CCN(C(=O)N[C@H](C(=O)N[C@H]2Cc3cccc(C(=O)O)c3OB2O)c2cc(Cl)c(O)cc2Cl)C(=O)C1=O (single isomer, unassigned) [Example 92] | > 64 µg/mL | > 64 µg/mL
9 | CCN1CCN(C(=O)NC(C(=O)N[C@H]2Cc3ccc(F)c(C(=O)O)c3OB2O)c2nc(N)sc2F)C(=O)C1=O (stereo partly drawn) [Example 18, (3R)-3-(2-(2-amino-5-fluorothiazol-4-yl)-2-(4-ethyl-2,3-dioxopiperazine-1-carboxamido)acetamido)-7-fluoro-2-hydroxy-3,4-dihydro-2H-benzo[e][1,2]oxaborinine-8-carboxylic acid] |  | 4 to 8 µg/mL (≈ 7.06 to 14.1 µM)
10 | CCN1CCN(C(=O)NC(C(=O)N[C@H]2Cc3cccc(C(=O)O)c3OB2O)c2ccc(C(N)=O)c(O)c2)C(=O)C1=O (stereo partly drawn) [Example 45, (3R)-3-(2-(4-carbamoyl-3-hydroxyphenyl)-2-(4-ethyl-2,3-dioxopiperazine-1-carboxamido)acetamido)-2-hydroxy-3,4-dihydro-2H-benzo[e][1,2]oxaborinine-8-carboxylic acid] | 16 to 32 µg/mL (≈ 28.2 to 56.4 µM) | 16 to 32 µg/mL (≈ 28.2 to 56.4 µM)
11 | NC(=O)c1ccc(C(NC(=O)N2CCN(CCF)C(=O)C2=O)C(=O)N[C@H]2Cc3cccc(C(=O)O)c3OB2O)cc1O (stereo partly drawn) [Example 46, (3R)-3-(2-(4-carbamoyl-3-hydroxyphenyl)-2-(4-(2-fluoroethyl)-2,3-dioxopiperazine-1-carboxamido)acetamido)-2-hydroxy-3,4-dihydro-2H-benzo[e][1,2]oxaborinine-8-carboxylic acid] | 16 to 32 µg/mL (≈ 27.3 to 54.7 µM) | 16 to 32 µg/mL (≈ 27.3 to 54.7 µM)
12 | NCCCN1CCN(C(=O)NC(C(=O)N[C@H]2Cc3cccc(C(=O)O)c3OB2O)c2ccc(C(N)=O)c(O)c2)C(=O)C1=O (stereo partly drawn) [Example 47, (3R)-3-(2-(4-(3-aminopropyl)-2,3-dioxopiperazine-1-carboxamido)-2-(4-carbamoyl-3-hydroxyphenyl)acetamido)-2-hydroxy-3,4-dihydro-2H-benzo[e][1,2]oxaborinine-8-carboxylic acid] | > 64 µg/mL | > 64 µg/mL

Source: US20230114728A1 (Venatorx Pharmaceuticals, Inc., priority 2019, published 2023)
